The star is where a group is joined. Palmitoyl = CCCCCCCCCCCCCCCC(=O)*
Columns and labels:
[1] = system: Schwann cells (cell line RT4-D6P2T); test: Immunocytochemistry of actin and vinculin (focal adhesion protein) of Schwann cells in gels; assay type: cell-based, rat; conditions: 48 h culture
Description: (§1) Cells were purchased from ATCC (cell line RT4-D6P2T) and cultured in Dulbecco's Modified Eagle's Medium (DMEM) with 10% fetal bovine serum (FBS). Cells were cultured to confluence, treated with 0.25% trypsin, centrifuged, and resuspended in PBS for a final concentration of 3500 cells/ml for WST-1 proliferation assays and 10,000 cells/ml for immunocytochemistry (ICC).
(§2) Following completion of the slow cooling, each of the PA solutions was mixed with Schwann cell suspension in a 4:1 ratio. A final cell density of 3500 cells/ml was used for the WST-1 proliferation assays and 10,000 cells/ml for immunocytochemistry studies.
(§3) A […] volume of gelling solution consisting of 20 mM CaCl2, 150 mM NaCl, and 3 mM KCl was pipetted onto a glass slide to form a thin film. The PA-Schwann cell suspensions were then pipetted in […] aliquots onto the thin film, instantly forming a string-like gel, with cells encapsulated within. These cell-embedded gels were maintained free floating in DMEM with 10% FBS in culture plates and incubated at 37° C. Medium was changed every 72 h.
(§4) Volumetric ratios of 1 ml HEPES, 10 ml 10XPBS, 87 ml Collagen 10 mg/mL, and 2 ml Schwann cell PBS suspension were combined and mixed gently. Final cell density of 3500 cells/ml was used for the WST-1 proliferation assays and 10,000 cells/ml, for immunocytochemistry studies. The mixture was then pipetted into a culture well (either a 96-well plate or 2-welled microscopy slides), and after 1 h of curing and solidification at 37° C., medium was added gently to the wells and changed every 3 days.
PA-cell gels along with collagen-cell gels were fabricated through the aforementioned methods at a final cell density of 10,000 cells/ml. […] Specimens were then viewed with confocal microscopy (Confocal SP1 MP-Inverted, Leica Microsystems Inc., Buffalo Grove, Ill.) using oil magnification, and images were recorded.

[2] = system: Schwann cells (cell line RT4-D6P2T); test: WST-1 proliferation assay of Schwann cells in PA or collagen gels; assay type: cell-based, rat; conditions: for Schwann cell proliferation compared to backbone-PA gel: by 7 days of culture; for Schwann cell proliferation (viability measurements) compared to backbone-PA gel: day 1 of culture
Description: as §1
In order to synthesize the backbone-PA (consisting of only palmitoyl-VVAAEENH2) (SEQ ID NO: 3), the molecule was dissolved in aqueous 150 mM NaCl, 3 mM KCl, and NaOH solution to obtain a final 1 wt % solution at a pH between 7.2 and 7.4. In order to fabricate mixtures containing epitope-bearing PAs IKVAV (SEQ ID NO: 2) and RGDS (SEQ ID NO: 1) (consisting of palmitoyl-VVAAEE-NH2(SEQ ID NO: 3) with appended peptides, either RGDS (Arg-Gly-Asp-Ser) (SEQ ID NO: 1) or IKVAV (Ile-Lys-Val-Ala-Val) (SEQ ID NO: 2)), the backbone-PA was dissolved in aqueous 150 mM NaCl, 3 mM KCl, and NaOH solution to obtain a 1.33 wt % solution at a pH between 7.2 and 7.4. The epitope-containing PA was then dissolved with the same solution to obtain a 1 wt % solution at a pH between 7.2 and 7.4. The 1.33 wt % PA solution was then mixed in a 3:1 ratio with the 1% bioactive epitope solution creating a final bioactive PA solution of 1 wt % PA and 0.25 wt % bioactive epitope. The three resulting solutions (backbone-PA, RGDS-PA (SEQ ID NO: 1), and IKVAV-PA (SEQ ID NO: 2)) were then heated to 80° C. for 30 min in a water bath and left in the bath for slowcooling to 37° C. overnight (refs. 10,11; herein incorporated by reference in their entireties).
as §2, §3, §4
To evaluate the viability of cells within the gels, WST-1 reagent (Roche Applied Science, Indianapolis, Ind., USA) was used for each PA-cell and collagen gelecell complex. WST-1 assay has been widely used to measure cell proliferation. Aligned PA-cell gels along with collagen-cell gels were fabricated through the aforementioned methods at a final cell density of 3500 cells/ml. Gels were then cultured in 96-well plates for various time periods (days 1, 7, 14, and 21). Following each time point, gels were incubated for 90 min in medium containing 10% WST-1 assay reagent. Following incubation, […] of the conditioned medium were then transferred to a 96-well reading plate, and absorption values were read in a spectrophotometer at 450 nm. Measurements were repeated in sets of four.

| Substance | actin appearance, RGDS-PA compared with IKVAV-PA gels [1] | Schwann cell proliferation compared to backbone-PA gel [2] | Schwann cell proliferation (viability measurements) compared to backbone-PA gel [2] | day at which Schwann cell growth was maximal ([2]; no significant expansion or contraction at day 21) [days] | time over which Schwann cell proliferation was statistically increased vs. backbone-PA ([2]; p<0.05, ANOVA and Tukey-Kramer) [days] | Schwann cell proliferation, rank among all groups ([2]; through 21 days of culture) | spatial arrangement of cytoskeletal actin of Schwann cells (actin stain) [1] | Schwann cell proliferation with time in gel ([2]; days 1, 7, 14, 21) |
| --- | --- | --- | --- | --- | --- | --- | --- | --- |
| IKVAV-PA: palmitoyl-VVAAEE-NH2 with appended IKVAV (Ile-Lys-Val-Ala-Val), mixed with backbone-PA: 1 wt % PA and 0.25 wt % bioactive epitope | no significant difference | significantly higher | proliferated more rapidly | 14 |  |  |  |  |
| RGDS-PA: palmitoyl-VVAAEE-NH2 with appended RGDS (Arg-Gly-Asp-Ser), mixed with backbone-PA: 1 wt % PA and 0.25 wt % bioactive epitope | no significant difference | significantly higher | proliferated more rapidly |  | ≤ 21 | highest among all groups |  |  |
| palmitoyl-VVAAEENH2 (Palmitoyl-VVAAEE-NH2) [backbone-PA] |  |  |  |  |  |  | marked linear arrangement | increasing proliferation with time |

Reference: patent publication US20170021056A1, “PEPTIDE AMPHIPHILE BIOMATERIALS FOR NERVE REPAIR” (Northwestern University, priority 2015, published 2017)
